The record followed here is patent US12458630B2, “Combination therapy for cancer” (The Regents of the University of California, priority 2020, dated 2025).

“Also recorded” adds a separate entry of the source.

The assay concerns 1444 primary human PDAC cells. In words: TMR-DEX macropinosome uptake assay. Type of assay: cell-based. The note with it: IKKα^Δ 1444 cells, 75 μM EIPA. How it is done:
Cell imaging. Immunostaining was performed as described^44. Cells were cultured on coverslips and fixed in 4% PFA for 10 min at room temperature. After washing twice in PBS, cells were incubated in PBS containing 10% FBS to block nonspecific sites of antibody adsorption. The cells were then incubated with the appropriate primary antibodies (diluted 1:100) and secondary antibodies (diluted 1:500) in PBS containing 10% FBS with or without 0.1% saponin. For cell macropinosome visualization, 24 hrs after seeding, the cells were serum starved for 18 hrs. Macropinosomes were marked using a high-molecular-mass (70 KD) TMR-Dextran (Invitrogen)-uptake assay, wherein TMR-DEX was added to serum-free medium at a final concentration of 1 mg/ml for 30 min at 37° C. At the end of the incubation period, the cells were rinsed five times in cold PBS and immediately fixed in 4% PFA. For tissue macropinosome visualization^45, fresh pancreata were cut into pieces with an approximate 5-mm cuboidal shape. […]
Quantification and statistics. To quantify the number of LC3 puncta, a total of 30 cells were recorded and analyzed using the LAS X measurement program on the TCS SPE Leica. Macropinosomes were quantified by using the ‘Analyze Particles’ feature in ImageJ (National Institutes of Health). […]

`CCN(c1nc(N)c(C(=O)N=C(N)N)nc1Cl)C(C)C` [EIPA, 5-(N-ethyl-N-isopropyl) amiloride]: the “macropinocytosis (TMR-DEX labeling)” value is reported as “inhibited; also recorded: suppressed”.
